test system: not listed separately; assay: DRUGMATRIX: Calcium Channel Type L, Dihydropyridine radioligand binding (ligand: [3H] Nitrendipine); format: cell membranes, Rattus norvegicus, Wistar, Cerebral cortex, Membrane; conditions: Not Active = under 50% inhibition at 10 µM

Structure (SMILES) | IC50 | Ki
C[C@]12CC[C@@H]3c4ccc(O)cc4CC[C@H]3[C@@H]1C[C@@H](O)[C@@H]2O [ESTRIOL] | Not Active | Not Active
C#C[C@]1(O)CC[C@H]2[C@@H]3CCC4=CC(=O)CC[C@]4(C)[C@H]3CC[C@@]21C [ETHISTERONE] | Not Active | Not Active
CC(O)(P(=O)(O)O)P(=O)(O)O [ETIDRONIC ACID] | Not Active | Not Active
CC(C)(C(=O)O)c1ccc(C(O)CCCN2CCC(C(O)(c3ccccc3)c3ccccc3)CC2)cc1 (stereo not given) [FEXOFENADINE] | Not Active | Not Active
CN1CCN(c2c(F)cc3c(=O)c(C(=O)O)cn(CCF)c3c2F)CC1 [FLEROXACIN] | Not Active | Not Active

biological target: T1, Neutrophil elastase (Homo sapiens, UniProt P08246); format: tissue-based; conditions: not given;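 also: inhibition of neutrophil elastase enzyme activity, measured with a p-nitroanilide-linked peptide substrate; in other assays of this panel Not Active means under 50% inhibition at 10 µM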
T1 sequence (P08246 whole entry): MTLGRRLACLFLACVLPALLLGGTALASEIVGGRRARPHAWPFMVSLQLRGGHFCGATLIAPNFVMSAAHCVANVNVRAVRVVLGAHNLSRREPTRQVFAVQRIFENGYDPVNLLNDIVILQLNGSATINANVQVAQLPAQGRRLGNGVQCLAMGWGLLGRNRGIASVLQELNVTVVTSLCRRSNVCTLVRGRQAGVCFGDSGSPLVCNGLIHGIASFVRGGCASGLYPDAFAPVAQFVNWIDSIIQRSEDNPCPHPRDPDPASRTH

Structure (SMILES) | IC50
C[C@]12CC[C@@H]3c4ccc(O)cc4CC[C@H]3[C@@H]1C[C@@H](O)[C@@H]2O [ESTRIOL] | Not Active
C#C[C@]1(O)CC[C@H]2[C@@H]3CCC4=CC(=O)CC[C@]4(C)[C@H]3CC[C@@]21C [ETHISTERONE] | Not Active
CC(O)(P(=O)(O)O)P(=O)(O)O [ETIDRONIC ACID] | Not Active
CC(C)(C(=O)O)c1ccc(C(O)CCCN2CCC(C(O)(c3ccccc3)c3ccccc3)CC2)cc1 (stereo not given) [FEXOFENADINE] | Not Active
CN1CCN(c2c(F)cc3c(=O)c(C(=O)O)cn(CCF)c3c2F)CC1 [FLEROXACIN] | Not Active

biological target: Sigma non-opioid intracellular receptor 1 (Homo sapiens, UniProt Q99720); assay: DRUGMATRIX: Sigma1 radioligand binding (ligand: [3H] Haloperidol); format: cell membranes, Jurkat, Membrane; conditions: jurkat; Not Active = under 50% inhibition at 10 µM
Sequence (Q99720 whole entry): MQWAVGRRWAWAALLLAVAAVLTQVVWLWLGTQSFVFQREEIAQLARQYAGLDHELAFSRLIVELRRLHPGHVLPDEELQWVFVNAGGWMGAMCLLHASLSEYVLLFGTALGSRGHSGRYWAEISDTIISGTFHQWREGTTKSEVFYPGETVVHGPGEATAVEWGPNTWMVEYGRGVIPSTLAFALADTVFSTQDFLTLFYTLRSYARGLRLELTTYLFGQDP

Structure (SMILES) | IC50
C[C@]12CC[C@@H]3c4ccc(O)cc4CC[C@H]3[C@@H]1C[C@@H](O)[C@@H]2O [ESTRIOL] | Not Active
C#C[C@]1(O)CC[C@H]2[C@@H]3CCC4=CC(=O)CC[C@]4(C)[C@H]3CC[C@@]21C [ETHISTERONE] | Not Active
CC(O)(P(=O)(O)O)P(=O)(O)O [ETIDRONIC ACID] | Not Active
CC(C)(C(=O)O)c1ccc(C(O)CCCN2CCC(C(O)(c3ccccc3)c3ccccc3)CC2)cc1 (stereo not given) [FEXOFENADINE] | Not Active
CN1CCN(c2c(F)cc3c(=O)c(C(=O)O)cn(CCF)c3c2F)CC1 [FLEROXACIN] | Not Active

biological target: C-C chemokine receptor type 5 (Homo sapiens, UniProt P51681); format: cell membranes, Membrane; conditions: hek293; also: in other assays of this panel Not Active means under 50% inhibition at 10 µM
Sequence (P51681 whole entry): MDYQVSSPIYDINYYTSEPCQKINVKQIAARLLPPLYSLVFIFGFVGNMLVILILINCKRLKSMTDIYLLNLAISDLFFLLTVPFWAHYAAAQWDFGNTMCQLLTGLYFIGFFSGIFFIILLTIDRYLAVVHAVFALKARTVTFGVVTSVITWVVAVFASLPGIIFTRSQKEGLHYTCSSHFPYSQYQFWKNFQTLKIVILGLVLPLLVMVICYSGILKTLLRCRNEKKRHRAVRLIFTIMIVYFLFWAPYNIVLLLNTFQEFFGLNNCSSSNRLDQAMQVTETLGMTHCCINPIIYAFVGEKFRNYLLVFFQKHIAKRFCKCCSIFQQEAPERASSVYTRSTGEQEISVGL

Structure (SMILES) | IC50
C[C@]12CC[C@@H]3c4ccc(O)cc4CC[C@H]3[C@@H]1C[C@@H](O)[C@@H]2O [ESTRIOL] | Not Active
C#C[C@]1(O)CC[C@H]2[C@@H]3CCC4=CC(=O)CC[C@]4(C)[C@H]3CC[C@@]21C [ETHISTERONE] | Not Active
CC(O)(P(=O)(O)O)P(=O)(O)O [ETIDRONIC ACID] | Not Active
CC(C)(C(=O)O)c1ccc(C(O)CCCN2CCC(C(O)(c3ccccc3)c3ccccc3)CC2)cc1 (stereo not given) [FEXOFENADINE] | Not Active
CN1CCN(c2c(F)cc3c(=O)c(C(=O)O)cn(CCF)c3c2F)CC1 [FLEROXACIN] | Not Active

biological target: T2, Neuropeptide Y receptor type 2 (Homo sapiens, UniProt P49146); format: cell membranes, Membrane; conditions: kan-ts; also: in other assays of this panel Not Active means under 50% inhibition at 10 µM
T2 sequence (P49146 whole entry): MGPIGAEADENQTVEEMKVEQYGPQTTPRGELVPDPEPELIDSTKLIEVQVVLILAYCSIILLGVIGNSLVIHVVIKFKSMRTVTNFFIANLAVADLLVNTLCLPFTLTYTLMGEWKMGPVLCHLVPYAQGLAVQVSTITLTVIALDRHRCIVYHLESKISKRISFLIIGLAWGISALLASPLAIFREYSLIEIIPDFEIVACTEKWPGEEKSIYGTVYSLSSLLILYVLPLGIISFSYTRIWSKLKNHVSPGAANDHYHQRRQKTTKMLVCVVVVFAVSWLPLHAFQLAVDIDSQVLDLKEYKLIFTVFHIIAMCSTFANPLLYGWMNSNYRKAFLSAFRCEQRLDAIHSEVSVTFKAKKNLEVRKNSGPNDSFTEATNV

Structure (SMILES) | IC50
C[C@]12CC[C@@H]3c4ccc(O)cc4CC[C@H]3[C@@H]1C[C@@H](O)[C@@H]2O [ESTRIOL] | Not Active
C#C[C@]1(O)CC[C@H]2[C@@H]3CCC4=CC(=O)CC[C@]4(C)[C@H]3CC[C@@]21C [ETHISTERONE] | Not Active
CC(O)(P(=O)(O)O)P(=O)(O)O [ETIDRONIC ACID] | Not Active
CC(C)(C(=O)O)c1ccc(C(O)CCCN2CCC(C(O)(c3ccccc3)c3ccccc3)CC2)cc1 (stereo not given) [FEXOFENADINE] | Not Active
CN1CCN(c2c(F)cc3c(=O)c(C(=O)O)cn(CCF)c3c2F)CC1 [FLEROXACIN] | Not Active

biological target: T3, C-X-C chemokine receptor type 2 (Homo sapiens, UniProt P25025); format: cell membranes, Membrane; conditions: cho-k1; also: in other assays of this panel Not Active means under 50% inhibition at 10 µM
T3 sequence (P25025 whole entry): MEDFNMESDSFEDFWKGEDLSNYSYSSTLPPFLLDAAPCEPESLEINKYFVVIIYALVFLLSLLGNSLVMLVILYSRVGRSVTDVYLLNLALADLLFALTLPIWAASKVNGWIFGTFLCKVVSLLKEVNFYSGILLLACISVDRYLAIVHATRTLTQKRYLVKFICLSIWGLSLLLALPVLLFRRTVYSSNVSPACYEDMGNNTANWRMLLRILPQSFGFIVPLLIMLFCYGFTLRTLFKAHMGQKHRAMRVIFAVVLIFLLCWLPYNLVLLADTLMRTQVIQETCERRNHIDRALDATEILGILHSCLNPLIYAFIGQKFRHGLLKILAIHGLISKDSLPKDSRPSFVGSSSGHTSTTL

Structure (SMILES) | IC50
C[C@]12CC[C@@H]3c4ccc(O)cc4CC[C@H]3[C@@H]1C[C@@H](O)[C@@H]2O [ESTRIOL] | Not Active
C#C[C@]1(O)CC[C@H]2[C@@H]3CCC4=CC(=O)CC[C@]4(C)[C@H]3CC[C@@]21C [ETHISTERONE] | Not Active
CC(O)(P(=O)(O)O)P(=O)(O)O [ETIDRONIC ACID] | Not Active
CC(C)(C(=O)O)c1ccc(C(O)CCCN2CCC(C(O)(c3ccccc3)c3ccccc3)CC2)cc1 (stereo not given) [FEXOFENADINE] | Not Active
CN1CCN(c2c(F)cc3c(=O)c(C(=O)O)cn(CCF)c3c2F)CC1 [FLEROXACIN] | Not Active

biological target: T4, Nitric oxide synthase, inducible (Mus musculus, UniProt P29477); design: species or system Escherichia coli; conditions: not given
T4 sequence (P29477 whole entry): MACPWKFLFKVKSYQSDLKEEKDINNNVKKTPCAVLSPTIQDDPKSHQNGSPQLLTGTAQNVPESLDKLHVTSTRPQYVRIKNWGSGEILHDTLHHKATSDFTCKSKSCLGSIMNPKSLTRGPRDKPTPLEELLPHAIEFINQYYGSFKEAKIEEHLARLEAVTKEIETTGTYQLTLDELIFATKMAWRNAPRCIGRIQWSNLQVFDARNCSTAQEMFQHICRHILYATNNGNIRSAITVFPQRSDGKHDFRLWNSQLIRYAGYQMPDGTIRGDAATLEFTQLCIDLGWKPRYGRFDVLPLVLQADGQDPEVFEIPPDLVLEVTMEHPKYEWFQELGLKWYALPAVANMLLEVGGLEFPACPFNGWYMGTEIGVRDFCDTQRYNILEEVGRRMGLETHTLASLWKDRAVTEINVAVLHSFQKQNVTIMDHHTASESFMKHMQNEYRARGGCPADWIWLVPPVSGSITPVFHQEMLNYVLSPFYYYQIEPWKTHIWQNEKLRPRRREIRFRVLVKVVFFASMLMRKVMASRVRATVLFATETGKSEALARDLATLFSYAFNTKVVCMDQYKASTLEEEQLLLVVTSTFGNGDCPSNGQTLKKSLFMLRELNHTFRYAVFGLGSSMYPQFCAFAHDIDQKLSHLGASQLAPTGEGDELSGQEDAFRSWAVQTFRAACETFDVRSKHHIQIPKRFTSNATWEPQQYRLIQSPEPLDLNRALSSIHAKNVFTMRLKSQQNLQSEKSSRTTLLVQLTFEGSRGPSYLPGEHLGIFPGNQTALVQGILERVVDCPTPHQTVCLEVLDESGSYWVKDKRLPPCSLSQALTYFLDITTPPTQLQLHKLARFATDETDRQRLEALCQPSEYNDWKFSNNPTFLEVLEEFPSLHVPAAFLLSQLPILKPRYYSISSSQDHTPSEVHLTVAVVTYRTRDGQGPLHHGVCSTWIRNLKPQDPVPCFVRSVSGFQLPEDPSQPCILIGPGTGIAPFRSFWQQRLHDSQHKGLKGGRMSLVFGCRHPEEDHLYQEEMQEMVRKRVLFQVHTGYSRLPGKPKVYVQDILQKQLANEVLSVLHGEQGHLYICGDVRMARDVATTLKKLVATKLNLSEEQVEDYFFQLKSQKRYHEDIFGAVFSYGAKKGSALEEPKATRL

Structure (SMILES) | IC50
C[C@]12CC[C@@H]3c4ccc(O)cc4CC[C@H]3[C@@H]1C[C@@H](O)[C@@H]2O [ESTRIOL] | Not Active
C#C[C@]1(O)CC[C@H]2[C@@H]3CCC4=CC(=O)CC[C@]4(C)[C@H]3CC[C@@]21C [ETHISTERONE] | Not Active
CC(O)(P(=O)(O)O)P(=O)(O)O [ETIDRONIC ACID] | Not Active
CC(C)(C(=O)O)c1ccc(C(O)CCCN2CCC(C(O)(c3ccccc3)c3ccccc3)CC2)cc1 (stereo not given) [FEXOFENADINE] | Not Active
CN1CCN(c2c(F)cc3c(=O)c(C(=O)O)cn(CCF)c3c2F)CC1 [FLEROXACIN] | Not Active
